Laboratory results: patent US20190358247A1 (The Medical College of Wisconsin, Inc., priority 2016, published 2019)
Read-outs that look alike come from different tables or passages of the source.

Assays:
MiaPaCa-2 cells [1] = experiment: Oxygen consumption rate in intact cells, Seahorse XF96; format: cell-based, human
Method: (§1) Respiratory enzyme activity in intact and permeabilized cells. The mitochondrial function in intact and permeabilized pancreatic cancer cells was measured using a Seahorse XF96 Extracellular Flux Analyzer (Seahorse Bioscience, North Billerica, Mass., USA). Unless specified otherwise, assays in intact cells were performed as previously described. Measurement of mitochondrial respiratory complexes in permeabilized cells was performed according to the manufacturer's instructions (Seahorse Bioscience). Briefly, intact cells were permeabilized using 1 nM Plasma Membrane Permeabilizer (PMP, Seahorse Bioscience) immediately before oxygen consumption rate (OCR) measurement by XF96. The oxygen consumption derived from mitochondrial complex I or complex II activity was measured by providing different substrates to mitochondria, e.g., pyruvate/malate for complex I and succinate for complex II activity. Rotenone, malonate and antimycin A were used as specific inhibitors of mitochondrial complex I, II and III activities, respectively.
Effects of Met and Mito-Met analogs on mitochondrial bioenergetics in MiaPaCa-2 cells. The oxygen consumption rate (OCR) and the extracellular acidification rate (ECAR) were measured as a readout of mitochondrial function and glycolysis using a Seahorse Bioscience XF96 extracellular flux analyzer. We compared the immediate OCR changes in response to different concentrations (e.g., IC50 or higher values determined by clonogenic assay) of Met, Mito-Met2, Mito-Met6, Mito-Met10, and phenformin (FIG. 13A).
Next we monitored the mitochondrial OCR changes in MiaPaCa-2 cells after 24 h treatment with Met, Mito-Met analogs, and phenformin followed by a washout of the treatments and return to fresh cell culture media.

HaCaT = experiment: IncuCyte cell confluence assay, keratinocytes; format: cell-based
Method: (§2) IncuCyte Analyzer-real time measurement of cell proliferation. The cell proliferation was measured using a label-free, noninvasive cellular confluence assay by IncuCyte Live-Cell Imaging Systems (Essen Bioscience, Ann Arbor, Mich., USA; IncuCyte FLR). This system enables collection of live cell images at 2 h intervals over several days. The IncuCyte Analyzer provides real-time cellular confluence data based on segmentation of high-definition phase-contrast images. The cell proliferation is expressed as an increase in percentage of cell confluence.

MCF-10A = experiment: IncuCyte cell confluence assay, nonmalignant breast epithelial cells; format: cell-based
Method: as §2

MiaPaCa-2 cells [2] = experiment: Clonogenic (colony formation) assay; format: cell-based, human
Method: Clonogenic assay. […] The plates were kept within the incubator and media changed every 3-4 days until the control cells formed sufficiently large clones. The cell survival fractions were calculated as previously described.
MiaPaCa-2 cells were treated with a range of concentrations as shown (FIG. 10C), and the number of colonies formed were counted.

MiaPaCa-2 cells [3] = experiment: Intracellular uptake by LC-MS/MS; settings: MiaPaCa-2, 1 μM, 1 h
Method: Cells were grown on 10 cm dishes and treated with the compounds for 24 h in full media.
Next we investigated the relative uptake of different Mito-Met analogs (Mito-Met2, Mito-Met6, and Mito-Met10) and phenformin in MiaPaCa-2 cells (FIG. 12D). Cells were treated with respective Mito-Met analog (1 μM) for 1 h. Cells were lysed after washing and analyzed for Mito-Met analog by LC-MS.

[4] = mouse, in vivo
Method: In an initial proof-of-concept experiment, syngeneic KPC cells expressing Firefly luciferase (FC1242-luc) were orthotopically implanted to the pancreas of C57BL/6 mice and tumor growth monitored using bioluminescence imaging (FIG. 15F). Mice orthotopically autografted with FC1242-luc cells were treated daily with 1 mg/kg or 150 mg/kg Met, or 1 mg/kg Mito-Met. […] Serum from these animals was collected, and hepatic and kidney toxicity tested using standard AST, ALT, AP, and BUN assays, respectively.

mitochondrial complex I = mitochondrial complex I (Homo sapiens, UniProt O75251+O75306+P03886); experiment: Complex I oxygen consumption (pyruvate/malate) in permeabilized cells, Seahorse XF96; format: cell-based; design: IC50, complex I oxygen consumption; other: permeabilized MiaPaCa-2, added acutely; settings: permeabilized MiaPaCa-2, added acutely
Method: as §1
The oxygen consumption rate was measured using the permeabilized MiaPaCa-2 cells in MAS buffer supplemented with pyruvate. The use of permeabilized cells avoids differences in cellular uptake of compounds. […] We tested the effect of pretreating cells with Mito-Met10 or Met using the permeabilized model. MiaPaCa-2 cells were treated with Met and Mito-Met10 for 24 h and the oxygen consumption studies were performed in these cells after permeabilization.

MiaPaCa-2 cells [5] = experiment: Radiosensitization, clonogenic survival after X-radiation; format: cell-based, human; settings: 24 h pretreatment (1 mM Met, 1 μM Mito-Met) before X-radiation
Method: MiaPaCa2 cells (1000 cells/well) were cultured in quadruplicate overnight in 96-well plates and changed to fresh medium.
Radiation experiments. […] The cells were then treated with X-radiation at a dose of 0, 2, 4, and 6 Gy. The control cells were treated with the same concentration of vehicle (0.1% DMSO) where appropriate. After irradiation, cells were suspended and seeded at various densities (100-8,000 cells per well) in 6-well plates for clonogenic assay as described above. The plates were kept within the incubator and media changed every 3-4 days for 2 weeks. Wells with 10-50 sufficiently large clones were chosen for calculating the cell survival fractions.
Effect of Mito-Met and Met on PDAC radiosensitivity. Both control cells and cells were pretreated for 24 h with 1 mM Met or Mito-Met (1 μM) prior to X-radiation. Cell survival was measured by a clonogenic assay.

MiaPaCa-2 cells [6] = experiment: Sytox Green cytotoxicity assay; format: cell-based; settings: 100 μM, 24 h
Method: Cytotoxicity assay. To determine the cytotoxicity of Mito-Met analogs and other TPP^+-conjugated to a long chain aliphatic hydrocarbon, we used the Sytox assay as described previously. MiaPaCa-2 cells were treated for 24 h, and dead cells were monitored in the presence of 200 nM Sytox Green (Invitrogen). The Sytox method labels the nuclei of dead cells yielding green fluorescence. Fluorescence intensities from the dead cells in 96-well plate were acquired in real time every 15 min after 4 h using a plate reader (BMG Labtech, Inc.) equipped with an atmosphere controller set at 37° C. and 5% CO2:95% air, using a fluorescence detection with 485 nm (excitation) and 535 nm (emission). To measure the total cell number, all of the samples in each treatment group were permeabilized by adding Triton X 100 (0.065%) in the presence of Sytox Green for 3 h, and maximal fluorescence intensities were taken as 100%. Data are represented as a percentage of dead cells after normalization to total cell number for each group.
Induction of cell death was monitored by Sytox Green staining, as shown previously. MiaPaCa-2 cells were treated with Mito-Met10 (100 μM), Mito-CP (100 μM), or Met (30 mM) and other controls for 24 h and cell death was measured in real time.

Sequence of mitochondrial complex I (P03886 whole entry): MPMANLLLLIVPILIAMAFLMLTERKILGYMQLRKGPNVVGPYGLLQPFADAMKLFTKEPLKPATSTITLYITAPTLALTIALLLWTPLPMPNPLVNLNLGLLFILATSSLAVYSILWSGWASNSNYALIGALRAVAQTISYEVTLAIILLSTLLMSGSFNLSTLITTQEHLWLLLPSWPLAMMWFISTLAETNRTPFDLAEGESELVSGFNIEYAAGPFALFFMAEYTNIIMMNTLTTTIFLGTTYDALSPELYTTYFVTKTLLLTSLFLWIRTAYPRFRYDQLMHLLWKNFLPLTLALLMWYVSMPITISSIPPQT
Sequence of mitochondrial complex I (O75251 39-213): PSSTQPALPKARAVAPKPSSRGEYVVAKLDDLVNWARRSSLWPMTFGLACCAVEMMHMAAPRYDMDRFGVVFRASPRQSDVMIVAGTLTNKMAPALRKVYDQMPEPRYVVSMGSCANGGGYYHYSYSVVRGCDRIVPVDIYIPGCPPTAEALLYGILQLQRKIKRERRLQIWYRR
Sequence of mitochondrial complex I (P03897 whole entry, further chain): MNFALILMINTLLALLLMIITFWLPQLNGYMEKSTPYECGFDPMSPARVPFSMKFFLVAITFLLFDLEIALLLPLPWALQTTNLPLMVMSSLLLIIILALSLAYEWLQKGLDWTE
Sequence of mitochondrial complex I (O75306 34-463): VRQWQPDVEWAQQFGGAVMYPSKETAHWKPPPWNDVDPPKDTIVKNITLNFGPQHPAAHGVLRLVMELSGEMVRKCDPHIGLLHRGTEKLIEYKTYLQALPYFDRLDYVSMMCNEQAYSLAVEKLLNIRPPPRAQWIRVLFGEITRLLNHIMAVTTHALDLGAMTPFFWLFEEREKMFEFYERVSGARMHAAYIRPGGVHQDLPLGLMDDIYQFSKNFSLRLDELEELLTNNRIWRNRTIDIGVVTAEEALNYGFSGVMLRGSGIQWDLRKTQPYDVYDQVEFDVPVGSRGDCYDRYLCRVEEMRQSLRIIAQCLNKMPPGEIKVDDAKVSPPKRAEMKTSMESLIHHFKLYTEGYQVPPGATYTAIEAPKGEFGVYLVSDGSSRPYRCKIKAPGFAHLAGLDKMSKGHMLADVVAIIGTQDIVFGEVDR
Sequence of mitochondrial complex I (O75489 37-264, further chain): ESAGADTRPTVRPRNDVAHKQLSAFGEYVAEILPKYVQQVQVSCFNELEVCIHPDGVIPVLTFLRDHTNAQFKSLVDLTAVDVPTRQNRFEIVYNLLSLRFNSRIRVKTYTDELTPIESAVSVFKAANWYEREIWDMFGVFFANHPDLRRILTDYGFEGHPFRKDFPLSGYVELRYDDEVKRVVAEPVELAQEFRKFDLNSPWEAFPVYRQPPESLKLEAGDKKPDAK

## Br.N=C(N)NC(=N)NCC[P+](c1ccccc1)(c1ccccc1)c1ccccc1 [Mito-Met2]
MiaPaCa-2 cells [1]; 24 h treatment, washout
  concentration at which OCR was inhibited: 25 µM

## CN(C)C(=N)N=C(N)N [Metformin, metformin, reference compound]
HaCaT
  effect on cell confluence: not significantly affected
MCF-10A
  effect on cell confluence: not significantly affected
MiaPaCa-2 cells [2]; 3 mM, 24 h
  colony formation: Almost no colony formation
MiaPaCa-2 cells [2]; read-out: IC50, colony formation / survival fraction, MiaPaCa-2, 24 h treatment
  IC50: 1.3 mM
MiaPaCa-2 cells [3]
  cellular uptake compared with phenformin: considerably lower than phenformin
[4]; 1 mg/kg
  Kidney BUN: 30 ± 7 mg/dL
  Liver ALT: 35 ± 15 IU/L
  Liver AST: 189 ± 117 IU/L
[4]; 150 mg/kg
  Kidney BUN: 22 ± 2 mg/dL
  Liver ALT: 19 ± 3 IU/L
  Liver AST: 127 ± 24 IU/L
MiaPaCa-2 cells [1]; OCR measured immediately after addition
  concentration decreasing oxygen consumption: 1 to 10 mM
Mitochondrial complex I
  concentration at which OCR was inhibited: 3,000 μM
MiaPaCa-2 cells [5]
  radiosensitization: increased radiosensitization

## [H]/N=C(/N)N/C(=N/[H])NCCc1ccccc1 [phenformin, reference compound]
MiaPaCa-2 cells [1]; immediate
  concentration inhibiting OCR to the same extent as Met: ten-fold lower concentration

## CC1(C)CC(OCCCCC[P+](c2ccccc2)(c2ccccc2)c2ccccc2)CC(C)(C)N1[O].[Br-] [Mito-Tempol, reference compound]
MiaPaCa-2 cells [6]
  cell death, Sytox Green staining: considerably more cytotoxic
